This note sets out measurements from PubChem BioAssay (NCI).

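Five compound concentrations were applied to cells in 96-well plates for 48 hours; endpoints were derived by simple linear interpolation of the resulting dose-response curve. Abbreviation: GI50, concentration required for 50% inhibition of growth. TGI denotes the concentration required for complete inhibition of growth.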 A value given as a limit tells only on which side of the number the result lay.

Some test systems named below: CCRF-CEM leukemia; SN12C renal; COLO 205 colon; SK-MEL-2 melanoma; KM12 colon; HCC-2998 colon; PC-3 prostate; OVCAR-8 ovarian; NCI-H23 lung; MALME-3M melanoma.
Holding throughout (assay): growth of human tumour cells (NCI), 48 h

For the compound `OCc1cccc(-c2ccc3ncc(-c4nc(NC5CC5)ncc4F)n3c2)c1`, the GI50 in the assay on CCRF-CEM leukemia is 249 nM; with SN12C renal, 281 nM; in the assay on COLO 205 colon it was 242 nM; in the assay on SK-MEL-2 melanoma it was 244 nM; in the assay with KM12 colon, 222 nM; with HCC-2998 colon, 333 nM. Further, the GI50 in the assay with PC-3 prostate is 314 nM; in the assay on OVCAR-8 ovarian, 301 nM; with NCI-H23 lung it was 281 nM; in the assay on MALME-3M melanoma, 375 nM. Further, the TGI with CCRF-CEM leukemia worked out at 2690 nM; with SN12C renal it was 1570 nM; in the assay with COLO 205 colon, 656 nM; in the assay with SK-MEL-2 melanoma, 671 nM; in the assay on KM12 colon it was 1210 nM; with HCC-2998 colon, 2170 nM. Moreover, the TGI is 3230 nM in the assay on PC-3 prostate, more than 100000 nM with OVCAR-8 ovarian, 1190 nM with NCI-H23 lung and 1060 nM in the assay with MALME-3M melanoma.
On to `CCc1ccc(-c2ccc(=O)n(-c3ccc(S(N)(=O)=O)cc3)n2)cc1`, for which the GI50 in the assay with CCRF-CEM leukemia was 1220 nM; with SN12C renal, 9880 nM; in the assay on COLO 205 colon it was 1950 nM; with SK-MEL-2 melanoma, 5040 nM; with KM12 colon, 680 nM; with PC-3 prostate, 1350 nM. Further, the results for the GI50 with OVCAR-8 ovarian, with NCI-H23 lung and with MALME-3M melanoma were 11000 nM, 11900 nM and 371 nM, respectively. In addition, the TGI in the assay on CCRF-CEM leukemia is more than 100000 nM; in the assay on SN12C renal it was more than 100000 nM; with COLO 205 colon, more than 55600 nM; in the assay with SK-MEL-2 melanoma it was 38900 nM; in the assay with KM12 colon it was more than 100000 nM; in the assay on HCC-2998 colon, more than 100000 nM. The TGI is more than 100000 nM with PC-3 prostate, more than 100000 nM in the assay with OVCAR-8 ovarian, more than 100000 nM in the assay on NCI-H23 lung and 23100 nM in the assay on MALME-3M melanoma.
`COc1ccc(Nc2ncccc2/C=C/C(=O)c2cc(OC)c(OC)c(OC)c2)cc1`: the GI50 in the assay on CCRF-CEM leukemia was 500 nM; in the assay with SN12C renal, 1560 nM; in the assay on COLO 205 colon, 1690 nM; with SK-MEL-2 melanoma, 1470 nM; with KM12 colon, 1690 nM; in the assay on HCC-2998 colon it was 1680 nM. Also, the GI50 with PC-3 prostate is 2820 nM; in the assay on OVCAR-8 ovarian, 1560 nM; with NCI-H23 lung, 1720 nM; with MALME-3M melanoma it was 1400 nM. Also, the TGI in the assay with CCRF-CEM leukemia is more than 100000 nM; in the assay on SN12C renal, 3440 nM; in the assay on COLO 205 colon, 3060 nM; with SK-MEL-2 melanoma, 2990 nM; in the assay on KM12 colon, 3220 nM; in the assay with HCC-2998 colon, 3090 nM. In addition, the TGI amounted to 8710 nM in the assay on PC-3 prostate, 4220 nM with OVCAR-8 ovarian, 3790 nM with NCI-H23 lung and 2870 nM in the assay with MALME-3M melanoma.
Consider `OCCCCC#Cc1ccccc1C#Cc1ccccc1F`, for which the GI50 in the assay with CCRF-CEM leukemia is 24600 nM; with SN12C renal, 18100 nM; with COLO 205 colon, 16400 nM; with SK-MEL-2 melanoma, 23900 nM; in the assay on KM12 colon, 18800 nM; in the assay on HCC-2998 colon, 17800 nM. Besides, the GI50 in the assay with PC-3 prostate was 20000 nM; in the assay on OVCAR-8 ovarian it was 20800 nM; in the assay on NCI-H23 lung, 20200 nM; in the assay on MALME-3M melanoma it was 26100 nM. The TGI with CCRF-CEM leukemia was determined as 48700 nM; in the assay with SN12C renal, 40400 nM; in the assay with COLO 205 colon it was 31300 nM; in the assay with SK-MEL-2 melanoma, 52500 nM; in the assay on KM12 colon, 37700 nM; with HCC-2998 colon, 33000 nM. The TGI with PC-3 prostate came out at 48200 nM; in the assay with OVCAR-8 ovarian it was 47900 nM; in the assay on NCI-H23 lung, 43100 nM; in the assay on MALME-3M melanoma, 46900 nM.
For `Cc1nc2cncc(C#Cc3cncc(C(=O)Nc4ccc(CN5CCN(C)CC5)c(C(F)(F)F)c4)c3)c2nc1C`, the GI50 with CCRF-CEM leukemia was 1120 nM; with SN12C renal, 275 nM; with COLO 205 colon, 196 nM; in the assay with SK-MEL-2 melanoma, 204 nM; with KM12 colon it was 5 nM; in the assay with HCC-2998 colon it was 1330 nM. Also, the GI50 with PC-3 prostate was 1510 nM; in the assay with OVCAR-8 ovarian, 721 nM; with NCI-H23 lung, 770 nM; in the assay on MALME-3M melanoma it was 146 nM. In addition, the TGI in the assay with CCRF-CEM leukemia is 12500 nM; in the assay on SN12C renal it was 17000 nM; in the assay with COLO 205 colon, 5960 nM; with SK-MEL-2 melanoma, 940 nM; in the assay with KM12 colon, 2980 nM; in the assay on HCC-2998 colon, 20500 nM. For the same compound, the TGI in the assay with PC-3 prostate is 12200 nM; with OVCAR-8 ovarian, 8880 nM; in the assay on NCI-H23 lung it was 6050 nM; in the assay with MALME-3M melanoma, 623 nM.
With `CSc1ccc(-c2cc(-c3ccc(NC(=O)CCCN4CCCC4)cc3)nc(-c3ccc(NC(=O)CCCN4CCCC4)cc3)c2)cc1`, the GI50 in the assay with CCRF-CEM leukemia is 1900 nM; with SN12C renal, 3460 nM; in the assay with COLO 205 colon, 2050 nM; with SK-MEL-2 melanoma, 4580 nM; with KM12 colon, 1870 nM; in the assay with HCC-2998 colon it was 2490 nM. Besides, the GI50 with PC-3 prostate was 1800 nM; in the assay with OVCAR-8 ovarian, 3300 nM; in the assay with NCI-H23 lung, 1670 nM; in the assay on MALME-3M melanoma, 14000 nM. In addition, the TGI was 3610 nM in the assay with CCRF-CEM leukemia; 17100 nM in the assay on SN12C renal; 4390 nM with COLO 205 colon; 19200 nM with SK-MEL-2 melanoma; 3300 nM with KM12 colon; 6500 nM with HCC-2998 colon. Also, the TGI was determined as 3400 nM in the assay with PC-3 prostate, 13600 nM in the assay on OVCAR-8 ovarian, 3160 nM in the assay with NCI-H23 lung and 42700 nM in the assay on MALME-3M melanoma.
For `CNC(=O)c1c(NC(=O)c2cccc(C(F)(F)F)c2)sc2c1CCC(=O)C2`, the GI50 is 113 nM in the assay with CCRF-CEM leukemia; 361 nM in the assay on SN12C renal; 382 nM in the assay on COLO 205 colon; 874 nM in the assay on SK-MEL-2 melanoma; 423 nM in the assay on KM12 colon; 656 nM in the assay with HCC-2998 colon. Further, the GI50 with PC-3 prostate was 139 nM; in the assay with OVCAR-8 ovarian it was 324 nM; in the assay on NCI-H23 lung it was 318 nM; in the assay on MALME-3M melanoma, 373 nM. Besides, the TGI is 1490 nM in the assay on CCRF-CEM leukemia; more than 20700 nM with SN12C renal; 1480 nM in the assay with COLO 205 colon; 3500 nM with SK-MEL-2 melanoma; 1960 nM with KM12 colon; 2520 nM in the assay on HCC-2998 colon. The TGI in the assay with PC-3 prostate is 1190 nM; with OVCAR-8 ovarian it was more than 100000 nM; in the assay with NCI-H23 lung it was 7560 nM; in the assay on MALME-3M melanoma it was 2280 nM.
`CCN(CC)CCOc1ccc(Nc2ncc3cc(-c4c(Cl)cccc4Cl)c(=O)n(CCOC)c3n2)cc1`: the GI50 in the assay with CCRF-CEM leukemia is 1110 nM; in the assay on SN12C renal, 23.7 nM; with COLO 205 colon, 148 nM; with SK-MEL-2 melanoma it was 493 nM; in the assay with KM12 colon it was 655 nM; in the assay on HCC-2998 colon, 1250 nM. Further, the GI50 was 3490 nM with PC-3 prostate, 200 nM in the assay with OVCAR-8 ovarian, 806 nM with NCI-H23 lung and 390 nM in the assay with MALME-3M melanoma. Moreover, the TGI in the assay with CCRF-CEM leukemia came to 18100 nM; in the assay with SN12C renal it was 5370 nM; in the assay on COLO 205 colon, 2430 nM; in the assay on SK-MEL-2 melanoma, 7600 nM; in the assay on KM12 colon it was 7640 nM; in the assay with HCC-2998 colon, 3570 nM. Also, the TGI with PC-3 prostate stood at 18600 nM; in the assay with OVCAR-8 ovarian, 3950 nM; in the assay with NCI-H23 lung, 3950 nM; in the assay with MALME-3M melanoma, 3950 nM.
Turning to `COc1ccc(C2=CC(c3cc(OC)c(OC)c(OC)c3)NC(=O)N2)cc1OC` (configuration not stated), the GI50 in the assay on CCRF-CEM leukemia was 2650 nM; in the assay with SN12C renal, 2420 nM; in the assay on COLO 205 colon, 2650 nM; in the assay on SK-MEL-2 melanoma it was 4960 nM; in the assay with KM12 colon, 2250 nM; in the assay on HCC-2998 colon it was 3770 nM. Further, the GI50 was 10200 nM in the assay with PC-3 prostate, 4250 nM with OVCAR-8 ovarian, 3480 nM with NCI-H23 lung and 5060 nM in the assay on MALME-3M melanoma. The TGI is 11000 nM with CCRF-CEM leukemia; 8330 nM with SN12C renal; 6690 nM with COLO 205 colon; 24300 nM in the assay on SK-MEL-2 melanoma; 6120 nM in the assay on KM12 colon; 12600 nM in the assay on HCC-2998 colon. For the same compound, the TGI is more than 100000 nM in the assay on PC-3 prostate, more than 100000 nM in the assay on OVCAR-8 ovarian, 17500 nM in the assay with NCI-H23 lung and 21100 nM in the assay with MALME-3M melanoma.
`C[N+](C)([O-])CCCNc1c2ccccc2nc2cccc([N+](=O)[O-])c12`: the TGI was found to be 1960 nM with CCRF-CEM leukemia; 1430 nM in the assay on SN12C renal; 322 nM in the assay with COLO 205 colon; 421 nM in the assay with SK-MEL-2 melanoma; 4360 nM with KM12 colon; 393 nM with HCC-2998 colon. The TGI stood at 1260 nM with PC-3 prostate, 20700 nM in the assay on OVCAR-8 ovarian, 676 nM in the assay on NCI-H23 lung and 419 nM with MALME-3M melanoma.
On to `c1cc(C2CCCCC2)ccc1OCCCCCCN1CCNCC1`, for which the GI50 in the assay with CCRF-CEM leukemia was 1510 nM; in the assay on SN12C renal, 1790 nM; with COLO 205 colon, 1960 nM; in the assay with SK-MEL-2 melanoma, 1820 nM; in the assay on KM12 colon, 1980 nM; with HCC-2998 colon, 2140 nM. For the same compound, the GI50 with PC-3 prostate is 2150 nM; in the assay with NCI-H23 lung it was 1960 nM; in the assay on MALME-3M melanoma, 1990 nM. In addition, the TGI came out at 3390 nM with CCRF-CEM leukemia; 3540 nM in the assay with SN12C renal; 3550 nM in the assay on COLO 205 colon; 3710 nM in the assay on SK-MEL-2 melanoma; 3550 nM with KM12 colon; 3760 nM with HCC-2998 colon. Also, the figures for the TGI in the assay with PC-3 prostate, in the assay on NCI-H23 lung and with MALME-3M melanoma were 5970 nM, 3820 nM and 3860 nM, respectively.
